The data set in a line: solvent given as SMILES.

Drawing on the Deep4Chem optical property database, this text covers emission maximum for 53 compounds.

`CC1CC=C(c2ccc(-c3ccc(C#N)s3)s2)CC1` (stereo not given): the emission maximum by setting is: (in C1CCOC1) 443 nm; (in CC#N) 448 nm; (in CCCCCC) 427 nm; (in CCO) 443 nm; (in OCCOCCO) 451 nm; (in c1ccncc1) 452 nm.
On to `COc1ccc(-c2cc3c(ccc(=O)n3C)s2)cc1`, for which the emission maximum runs as follows: (in CC#N) 424 nm; (in ClCCl) 426 nm.
On to `N#Cc1cc2ccc(O)cc2oc1=N`, for which the emission maximum is, setting by setting: (in C1CCOC1) 412 nm; (in CC#N) 408 nm; (in CCOC(C)=O) 414 nm; (in CS(C)=O) 409 nm; (in ClC(Cl)Cl) 415 nm.
As for `O=c1oc2ccccc2cc1-c1cc2ccccc2o1`, the emission maximum came to 442 nm (in CC#N); 433 nm (in CCOC(C)=O); 450 nm (in CS(C)=O); 431 nm (in Cc1ccccc1); 475 nm (in O).
As to `CCCCN1C(=O)C(=CC=C2N(CCCC)c3ccccc3N2CCCC)C(=O)N(CCCC)C1=S`, the emission maximum by setting is: (in CCCCCC) 488 nm; (in CCO) 478 nm; (in CN(C)C=O) 482 nm; (in Cc1ccccc1) 490 nm; (in ClC(Cl)Cl) 489 nm; (in ClCCl) 486 nm.
On to `OB(O)c1ccc(-c2ccc(N(c3ccccc3)c3ccccc3)cc2)cc1`, for which the emission maximum runs as follows: (in C1CCCCC1) 384 nm; (in C1CCOC1) 410 nm; (in CCO) 422.4 nm; (in CCOCC) 398 nm; (in CO) 432 nm.
Consider `CC(C)(C)c1ccc(-c2c(-c3ccc(-n4c5ccccc5c5ccccc54)cc3)c(C#N)c(-c3ccc(-n4c5ccccc5c5ccccc54)cc3)c(-c3ccc(C(C)(C)C)cc3)c2-c2ccc(C(C)(C)C)cc2)cc1`, for which the emission maximum (in C1CCOC1) was determined as 406 nm.
`CCCCC(CC)COc1cc(OCC(CC)CCCC)c2c#cc3ccc4oc5ccc(c#cc6cc(c#cc7ccc8oc9ccc(c#cc1c2)cc9c8c7)c(C(CCCC)OCCC)cc6C(CCCC)OCCC)cc5c4c3` (stereo not given) returned an emission maximum (in ClCCl) of 377 nm.
For the compound `[NH3+]c1cc([NH3+])cc(-c2[nH+]c3ccccc3s2)c1`, the emission maximum (in O) stood at 460 nm.
Consider `F[B-]1(F)OC(c2ccc3c(c2)Cc2ccccc2-3)=CC(c2ccccc2)=[O+]1`, for which, for the setting “in CC#N”, the emission maximum was 491 nm.
On to `C1=Cc2ccc(N(c3ccccc3)c3ccccc3)cc2C2(c3cc(N(c4ccccc4)c4ccccc4)ccc31)c1ccccc1-c1ccccc12`, for which the emission maximum (in ClCCl) came to 461 nm.
On to `CCNc1cc2c(cc1C)C(c1ccccc1C(=O)O)=C1CCCC(/C=C/C3=[N+](C)c4ccccc4C3(C)C)=C1O2`, for which the emission maximum is, setting by setting: (in CC#N) 728 nm; (in CCO) 721 nm; (in CO) 720 nm; (in ClC(Cl)Cl) 722 nm.
`Cc1ccc(-c2cc(C)[o+]c(C)c2)cc1`: the emission maximum reads like this: (in CC#N) 435 nm; (in ClCCl) 417 nm.
In the case of `C1=Cc2ccccc2Cc2ccccc21`, the emission maximum reads like this: (in CC#N) 383 nm; (in CO) 380 nm.
On to `CC(C)(C)c1ccc(C2=C(c3ccc(N4c5ccccc5C(C)(C)c5ccccc54)cc3)S(=O)(=O)c3c2sc(-c2ccc(N4c5ccccc5C(C)(C)c5ccccc54)cc2)c3-c2ccc(C(C)(C)C)cc2)cc1`, for which the emission maximum (in C1CCOC1) worked out at 581 nm.
For the setting “in Cc1ccccc1”, `c1ccc2c(c1)CCc1ccccc1N2c1c2ccccc2c(N2c3ccccc3CCc3ccccc32)c2ccccc12` yielded an emission maximum of 525 nm.
On to `COc1ccc(-c2cc3c4c(c2)CCc2cc(-c5ccc(OC)cc5)cc(c2-4)CC3)cc1`, for which the emission maximum came to 386.34 nm (in C1CCCCC1); 390.22 nm (in C1CCOC1); 388.06 nm (in CC#N); 384.62 nm (in CCCCCC); 386.99 nm (in CCO); 392.15 nm (in CN(C)C=O). Besides, the emission maximum is 386.56 nm (in CO), 391.46 nm (in ClC(Cl)Cl) and 391.08 nm (in ClCCl).
As for `CC(C)[Si](C#Cc1ccc2c(C#C[Si](C(C)C)(C(C)C)C(C)C)cc3c4cc(C#C[Si](C(C)C)(C(C)C)C(C)C)ccc4c(C#C[Si](C(C)C)(C(C)C)C(C)C)cc3c2c1)(C(C)C)C(C)C`, for the setting “in ClCCl”, the emission maximum was 408 nm.
For the compound `N#Cc1cc(N2c3ccccc3Oc3ccccc32)cc(N2c3ccccc3Oc3ccccc32)c1`, the emission maximum (in Cc1ccccc1) is given as 520 nm.
Turning to `O=C(O)CCCOc1cccc(-c2c3nc(cc4ccc([nH]4)c(-c4cccc(OCCCC(=O)O)c4)c4nc(cc5ccc2[nH]5)C=C4)C=C3)c1`, the emission maximum (in CS(C)=O) was 632 nm.
The same measure, in the same setting: as for `CSc1ccc(-c2nc3sc4ccccc4c3s2)cc1`, the figure is 431 nm.
In turn, `C(=C\c1c[nH]c2ccc(Oc3ccccc3)cc12)/C1=[NH+]c2cccc3cccc1c23` had an emission maximum (in CO) of 584 nm.
`C[C@]12SC(=O)C=C1c1nc(-c3ccc(Cl)cc3)[nH]c1C1=CC(=O)S[C@@]12C` displayed an emission maximum (in CC#N) of 509 nm.
Regarding `CCN(CC)c1ccc2cc3ccc(=[N+](CC)CC)cc-3oc2c1`, the emission maximum reads like this: (in CC#N) 549 nm; (in CCO) 557 nm; (in CN(C)C=O) 532 nm; (in O) 555 nm.
As to `Cc1cc(-c2nc(-c3ccccc3)nc(-c3ccccc3)n2)ccc1N1c2ccccc2CCc2ccccc21`, under “in Cc1ccccc1”, the emission maximum is listed as 481.75 nm.
With `CB1C=Cc2ccc3ccccc3c2N1`, for the setting “in C1CCCCC1”, the emission maximum is 373 nm.
As for `CCCCCCN(CCCCCC)c1ccc(C#Cc2ccc(C#N)cc2)cc1`, the emission maximum turned out to be 530 nm (in CC#N), 514 nm (in CO) and 484 nm (in ClCCl).
Take `CC[N+](CC)=c1ccc2cc3c(=O)oc4cc5c(cc4c3oc-2c1)CCCN5C`: the emission maximum runs as follows: (in ClCCl) 648 nm; (in O) 658 nm.
`COc1ccc(C2=N/C(=C\c3ccccc3)C(=O)O2)cc1OC`: the emission maximum (in C1COCCO1) is given as 447 nm.
As for `COC(=O)c1c(-c2cc3ccccc3oc2=O)nn(-c2cccc(C)c2)c1C(=O)OC`, the emission maximum (in ClCCl) is 401 nm.
As for `Fc1c(F)c(-n2c3ccccc3c3ccccc32)c(F)c(-n2c3ccccc3c3ccccc32)c1-c1nnc(-c2ccccc2)o1`, the emission maximum (in Cc1ccccc1) amounted to 449 nm.
Where the note is “in CCO”, `CCOC(=O)c1cc(C(=O)OCC)c2ccc(C)cc2n1` showed an emission maximum of 422 nm.
In turn, `COc1ccc2ccccc2c1C1=CC(c2ccccc2)=C(c2ccccc2)C1` returned an emission maximum (in ClCCl) of 471 nm.
As for `COc1ccc(/C=C/C(F)(F)F)c(N)c1`, the emission maximum (in C1CCOC1) stood at 410 nm.
For the setting “in C1CCOC1”, `COc1cc2c(cc1-c1ccc(F)cc1)Cc1c3c(c4c(c1-2)-c1cc(OC)c(-c2ccc(F)cc2)cc1C4)C(=O)N(CCC(C)C)C3=O` returned an emission maximum of 468 nm.
For `CCn1c2sccc2c2c3nsnc3c3c4ccsc4n(CC)c3c21`, the emission maximum runs as follows: (in C1CCOC1) 521 nm; (in CCOC(C)=O) 521 nm; (in CN(C)C=O) 552 nm; (in Cc1ccccc1) 508 nm; (in ClCCl) 548 nm.
With `N#Cc1ccc(-c2nc(-c3ccccc3)c(-c3ccccc3)[nH]2)cc1`, the emission maximum (in CO) was determined as 435 nm.
As for `C[Si](C)(C)C#Cc1ccc(C#Cc2cnc(C#Cc3ccccc3)nc2)cc1`, the emission maximum (in C1CCCCC1) came to 390 nm.
Consider `Cc1cn2cc(-c3ccc([N+](=O)[O-])cc3)[n-][n+]2c1`, for which the emission maximum (in ClCCl) is given as 575 nm.
Same read-out and setting: to `c1ccc(B2Nc3cc4c(cc3-c3sc5ccccc5c32)NB(c2ccccc2)c2c-4sc3ccccc23)cc1` belongs 418 nm.
`N#Cc1c(N2CCCC2)cc(-c2ccccc2)c2c1-c1ccccc1C2` registered an emission maximum (in C1CCOC1) of 446 nm.
Turning to `CC1(C)C(=O)C=Cc2ccc(N)cc21`, under “in O”, the emission maximum was 526 nm.
As to `Cc1nc2c(ccc3c2sc(/C=C/C=C/c2ccc(N(C)C)cc2)[n+]3C)s1`, the emission maximum by setting is: (in CO) 700 nm; (in ClC(Cl)Cl) 696 nm.
The compound `Cc1cc(C)c([B-]2(c3c(C)cc(C)cc3C)[O+]=P(c3ccccc3)(c3ccccc3)c3cc(-c4ccc(C(F)(F)F)cc4)sc3-c3sc(-c4ccc(C(F)(F)F)cc4)cc32)c(C)c1` showed an emission maximum (in C1CCOC1) of 468 nm.
Compound `COCCOCCOCCOCC(COCCOCCOCCOC)Oc1cc(/C=C/c2ccc(/C=C(\C#N)c3ccccc3)cc2)c(OC(COCCOCCOCCOC)COCCOCCOCCOC)cc1/C=C/c1ccc(/C=C(\C#N)c2ccccc2)cc1` had an emission maximum (in ClCCl) of 539 nm.
`CN1C(=CC2=C([O-])C(=CC3=[N+](C)c4ccccc4C3(C)C)C2=NC#N)C(C)(C)c2ccccc21`: the emission maximum (in ClC(Cl)Cl) came out at 665 nm.
On to `CC1=[N+]2C(=C(c3ccccc3)c3c4c(c(C)n3[B-]2(F)F)CCc2ccccc2-4)C2=C1CCc1ccccc12`, for which the emission maximum (in CC#N) was found to be 612 nm.
`F[B-]12OC(c3ccccc3)=Nc3cccc([n+]31)N=C(c1ccccc1)O2` returned an emission maximum (in ClCCl) of 456 nm.
Where the note is “in ClCCl”, `CCOC(=O)CCCCCn1c2ccc([N+](=O)[O-])cc2c(=O)c2cc3c(cc21)c(=O)c1cc([N+](=O)[O-])ccc1n3CCCCCC(=O)OCC` yielded an emission maximum of 553 nm.
As to `CCN(CC)c1ccc2cc(-c3cn4cc(OC)ccc4n3)c(=O)oc2c1`, the emission maximum (in ClC(Cl)Cl) is recorded as 478 nm.
In turn, `CN(C)c1ccc(C2=Nc3sc4ccccc4[n+]3[B-](F)(F)O2)cc1` showed an emission maximum (in C1CCOC1) of 469 nm; an emission maximum (in CC#N) of 486 nm; an emission maximum (in CC(C)=O) of 482 nm; an emission maximum (in Cc1ccccc1) of 450 nm; an emission maximum (in ClCCl) of 467 nm.
On to `Oc1cccc(C2=[N+]3C(=C(c4ccccc4)c4cccn4[B-]3(F)F)C=C2)c1`, for which the emission maximum (in ClC(Cl)Cl) stood at 553 nm.
On to `CNc1ccc2c(c1)C(=O)c1ccccc1-2`, for which the emission maximum is, setting by setting: (in C1CCCCC1) 587 nm; (in c1ccccc1) 635 nm.
